Data: US8822440B2, “Inhibiting cyclin D polypeptides” (Mayo Foundation for Medical Education and Research, priority 2006, dated 2014)
Entries after “also recorded” stand apart in the source; their conditions may differ.

Assays:
CCND2 promoter = test: CCND2 promoter-luciferase transactivation assay in NIH3T3 cells with or without c-maf; format: cell-based, mouse; details: for effect on CCND2-luc expression, agent alone: 5 μM; for effect on CCND2-luc expression, agent alone / identified as putative inhibitor of CCND2 transactivation (screen hit): 16 hours; for identified as putative inhibitor of CCND2 transactivation (screen hit): ~5 μM, hit = 50% or more reduction in luciferase relative to cell viability
Method: Using this assay, Lopac (n=1280), Prestwick (n=1120), and Spectrum (n=2000) libraries of drugs and natural compounds were screened. In a parallel MTS assay, the effect of each compound on 3T3 viability was determined, allowing exclusion of compounds that caused secondary suppression of CCND2 due to non-specific cytotoxicity. […] These included monensin, patulin, β-lapachone, camptothecin, dihydrogambogic acid, gentian violet, thapsigargin, brefeldin A, pristimerin, and kinetin riboside.
Full-length c-maf cDNA was subcloned into an IRES-GFP MIEV retroviral vector and introduced into NIH3T3 cells by infection. Stable clones expressing GFP and c-maf were selected by flow cytometry and immunoblotting, respectively. The promoter of human cyclin D2 (−894 to −4; Brooks et al., J. Biol. Chem., 271, 9090-9 (1996)), containing c-maf responsive element sequence (MARE), was cloned from DNA from HeLa cells and inserted into the pGLbasic firefly luciferase vector (Promega, Madison, Wis.) immediately upstream of the luciferase gene. This construct was co-transfected with pcDNA3 (containing a neomycin resistance gene) into both NIH3T3 wild type cells and NIH3T3 cells stably over-expressing c-maf-IRES-GFP. Cells stably expressing c-maf, GFP, and luciferase were selected.
(§1) NIH3T3 cells stably expressing c-maf and the CCND2 promoter driving luciferase (13,000 cells per well) were plated in 96-well plates by a Biomek FX liquid handler (Beckman, Fullerton, Calif.). After the cells had adhered, they were treated with aliquots of molecules from LOPAC (Sigma, St. Louis, Mo.), Prestwick (Prestwick Chemical Inc, Illkirch, France) or Spectrum (Microsource Discovery Systems, Gaylordsville, Conn.) libraries of off-patent drugs and chemicals at a final concentration of ˜5 μM and <0.1% DMSO. Cells were incubated with compounds at 37° C. for 16 hours.
Luciferase assay. Luciferase activity was assessed according to the manufacturer's instructions (Promega, Madison, Wis.). Briefly, the cell culture medium was removed using an EMBLA plate washer (Molecular Devices, X) and Glo Lysis buffer (Promega) was added by robot. After a 10-minute incubation, an equal volume of Bright-Glo Luciferase substrate (Promega) was added, and luminescence signal was detected with a 96-well Luminoskan luminescence plate reader (Thermo Labsystem, Waltham, Mass.) using a 5 second integration.
Studies of kinetin riboside using 3T3-D2-luc cells. To examine CCND2 suppression induced by kinetin riboside, the reporter cells were exposed to kinetin riboside in combination with other drugs (all purchased from Sigma, St. Loius, Mo.) that influence CCND2 transcription or inhibit nucleoside transport or phosphorylation. NIH3T3 cells expressing the CCND2 promoter driving luciferase were incubated with kinetin riboside or vehicle control +/− forskolin, 4-(3-butoxy-4-methoxybenzyl)imidazolidin-2-one (BMBI), cantharadin, S-(4-Nitrobenzyl)-6-thioinosine (NBTI), or A-134974, as specified at 5 μM concentration for 16 hours at 37° C. […] Forskolin is a cell-permeable diterpenoid that activates adenylate cyclase resulting in increased cAMP concentration. BMBI (Sigma B8279) is an inhibitor of cAMP phosphodiesterase that also causes accumulation of cAMP. Cantharadin (C7632) is an inhibitor of protein phosphatase 2A and, from the library screen, mediates induction of CCND2. NBTI (Sigma N2255) is a potent adenosine uptake inhibitor, and A-134974 (Sigma A2846) is a selective inhibitor of adenosine kinase.
(§2) In an optimized automated assay, NIH3T3 cells over-expressing c-maf and the human cyclin D2 promoter driving luc were plated in 96-well plates by robot and following adhesion were treated for 16 hours with compounds at a final concentration of ˜5 μM and <0.1% DMSO. As a control, cells were treated with buffer alone. […] Thus, each compound from the library was tested in at least two assays—luciferase for CCND2 activity and MTS for viability. The coefficient of variance (CV) of the assay was <10%.

NIH3T3 cells = format: cell-based, mouse; details: MTS
Method: as §1
(§3) Viability assay. The effects of screened compounds on cell viability was assessed by 3-(4,5-dimethyl[…])-5-(3-carboxymethoxyphenyl)-2-(4-sulfophenyl)-2-H-tetrazolium (MTS) assay according to the manufacture's instructions (Progmega, Madison, Wis.). MTS reagent (20 μL/well in 96 well plates) was added to cells, and these were then incubated at 37° C. for 4 hours. Absorbance at 490 nm was determined using a 96-well plate reader.
as §2

HMCL = test: Cell cycle profiling of HMCL by flow cytometry; format: cell-based, human; details: Example 1, HMCL
Method: Cell cycle profiling. HMCL were incubated with drug or vehicle as indicated, washed and resuspended in 1 mL PBS. Ice cold ethanol was added dropwise to 75% with regular mixing, and suspensions were incubated at −20° C. for 1 hour. Cells were washed again with PBS and resuspended in 0.1 mL RNAse A (100 μg/mL) at room temperature for 5-10 minutes. Propidium iodide (200 μL×100 μg/mL) was added immediately prior to analysis by flow cytometry. Cellular aggregates were excluded using CellQuest Doublet Discriminator Module, and cell cycle profile was determined using ModFit LT Mac 3.1 SP2 (Verity Software House, TopSham, Me.).

[1] = test system: human myeloma cell lines (HMCL); test: HMCL viability / cytotoxicity (MTT, MTS); format: cell-based
Method: Subsequent validation studies using selected compounds in human myeloma cell lines (HMCL) confirmed successful suppression of both cyclin D2 and D1 polypeptides. Each of these compounds was then shown to be cytotoxic to a genetically diverse and standardized panel of 14 HMCL in MTT assays: monensin (10-760 nM), camptothecin (5-700 nM), dihydrogambogic acid (250-800 nM), pristimerin (150-500 nM), and kinetin riboside (2.5-20 μM). Cell cycle analysis confirmed induction of G0/G1 phase arrest for most compounds, consistent with cyclin D inhibition.
as §3

CD138+ myeloma cells = test: Unsorted myeloma patient bone marrow, flow cytometry: CD138+ myeloma cells; format: cell-based, human; details: unsorted myeloma patient bone marrow samples
Method: (§4) Flow cytometry. HMCL were treated as indicated and then washed in cold phosphate-buffered saline (PBS) and resuspended in buffer containing AnnexinV-FITC and propidium iodide (BD Biosciences, San Jose, Calif.) for 15 minutes at room temperature. Cells (10^5) were subsequently diluted and analyzed immediately by flow cytometry (FACScan, BD Biosciences, San Jose, Calif.) using CellQuest software. Patient bone marrow specimens were prepared and analyzed in a similar fashion using AnnexinV-FITC and anti-CD138-PE (BD Biosciences, San Jose, Calif.).
(§5) As mouse embryos that lack any D-cyclins eventually die from hematopoietic failure (Kozar et al., Cell, 118, 477-91 (2004)), the bone marrow might be predicted to be one of the most sensitive non-malignant tissue to be affected by drugs targeting cyclin D expression. Unsorted bone marrow samples from myeloma patients were treated with kinetin riboside to assess the relative cytotoxicity of this drug on malignant versus non-malignant marrow cells. Bone marrow samples were first processed to remove non-nucleated red cells and were then treated for 48 hours with kinetin riboside (5 μM).

[2] = test system: CD138− hematopoietic cells; test: Unsorted myeloma patient bone marrow, flow cytometry: CD138- non-malignant cells; format: cell-based; details: for toxicity for normal / non-malignant patient hematopoietic cells: patient bone marrow
Method: as §4, §5

For CCCCOc1cc(CC2CNC(=O)N2)ccc1OC (centres unmarked) [BMBI, 4-(3-butoxy-4-methoxybenzyl)imidazolidin-2-one], which “effect on CCND2-luc expression, agent alone” value (CCND2 promoter; NIH3T3 reporter cells) is on record?
The value was “CCND2 transactivation”.

O=[N+]([O-])c1ccc(CSc2ncnc3c2ncn3[C@@H]2O[C@H](CO)[C@@H](O)[C@H]2O)cc1 [NBTI, S-(4-Nitrobenzyl)-6-thioinosine] was tested. Which “effect on kinetin riboside-induced suppression of CCND2” value (CCND2 promoter; NIH3T3 reporter cells, with kinetin riboside) did it give?
The value was “does not block kinetin riboside function”.

Which “identified as putative inhibitor of CCND2 transactivation (screen hit)” value (shortened to “identified as putative inhibitor”) (CCND2 promoter) does the source give for CC[C@@]1(O)C[C@H](O[C@H]2C[C@H](N(C)C)[C@H](O)[C@H](C)O2)c2c(cc3c(c2O)C(=O)c2c(O)cccc2C3=O)[C@H]1C(=O)OC [aklavine] here?
The value was “putative suppressors of CCND2”.

And the “effect on NIH3T3 viability” value (NIH3T3 cells)?
Its value is “excess NIH3T3 cytoxicity”.

For C[C@H]1CCC/C=C/[C@@H]2C[C@H](O)C[C@H]2[C@H](O)/C=C/C(=O)O1 [brefeldin A], which “identified as putative inhibitor” value (CCND2 promoter) is on record?
The value was “putative CCND2 inhibitors”.

How did the “cell cycle arrest phase” value (HMCL) turn out when CC[C@@]1(O)C(=O)OCc2c1cc1n(c2=O)Cc2cc3ccccc3nc2-1 [camptothecin, reference compound] was run?
The value was “S-phase arrest”.

What about the “identified as putative inhibitor” value (CCND2 promoter) of the same molecule?
Its value is “putative CCND2 inhibitors; also recorded: putative suppressors of CCND2”.

And the “cytotoxic concentration across panel of 14 HMCL” value ([1]; MTT assays, 14 HMCL)?
Its value is 5 to 700 nM.

Which “effect on CCND2-luc expression, agent alone” value (CCND2 promoter; NIH3T3 reporter cells) does the source give for C[C@@]12C(=O)OC(=O)[C@]1(C)[C@H]1CC[C@@H]2O1 [cantharadin] here?
Its value is “marked transactivation”.

Which “activity against CD138+ myeloma cells compared with non malignant hematopoietic cells” value (CD138+ myeloma cells) does the source give for CC(C)=CCCC1(C)C=Cc2c(O)c3c(c(CC=C(C)C)c2O1)OC12C(=CC4CC1C(C)(C)OC2(C/C=C(/C)C(=O)O)C4O)C3=O (centres unmarked) [dihydrogambogic acid] here?
The value was “selective activity”.

And the “suppression of CCND2 promoter in absence or presence of c-maf” value (CCND2 promoter; NIH3T3 CCND2-luc with or without c-maf)?
Its value is “c-maf independent specific suppression of the CCND2 promoter”.

And the “identified as putative inhibitor” value (CCND2 promoter)?
Its value is “putative CCND2 inhibitors; also recorded: putative suppressors of CCND2”.

And the “cytotoxic concentration across panel of 14 HMCL” value ([1]; human)?
The value was 250 to 800 nM.

Which “identified as putative inhibitor” value (CCND2 promoter) does the source give for CN(C)c1ccc(C(=C2C=CC(=[N+](C)C)C=C2)c2ccc(N(C)C)cc2)cc1 [gentian violet] here?
The value was “putative CCND2 inhibitors; also recorded: putative suppressors of CCND2”.

For N[C@@H](Cc1ccc(N(CCCl)CCCl)cc1)C(=O)O [melphalan, reference compound], which “effect on non-malignant CD138− marrow cells” value ([2]; 48 hours, kinetin riboside 5 μM) is on record?
The value was “killed proportionately more healthy CD138− marrow cells than malignant myeloma cells”.

Which results are given for CC[C@@]1([C@@H]2O[C@@H]([C@H]3O[C@@](O)(CO)[C@H](C)C[C@@H]3C)C[C@@H]2C)CC[C@H]([C@]2(C)CC[C@]3(C[C@H](O)[C@@H](C)[C@@H]([C@@H](C)[C@@H](OC)[C@H](C)C(=O)O)O3)O2)O1 [monensin, reference compound]?
identified as putative inhibitor of CCND2 transactivation (screen hit) (CCND2 promoter): putative CCND2 inhibitors; also recorded: putative suppressors of CCND2; cytotoxic concentration across panel of 14 HMCL ([1]; human): 10 to 760 nM; toxicity for normal / non-malignant patient hematopoietic cells [2]: almost equal toxicity for normal cells; toxicity for normal / non-malignant patient hematopoietic cells ([2]; listed as Monensin): excessive non-specific toxicity

With N=C1C=CC(=C(c2ccc(N)cc2)c2ccc(N)cc2)C=C1 [pararosaniline pamoate] as the molecule, how does the “identified as putative inhibitor” value (CCND2 promoter) read?
The value was “putative suppressors of CCND2”.

Which “identified as putative inhibitor” value (CCND2 promoter) does the source give for C/C=C(/C)C(=O)O[C@H]1C(C)=C2[C@H]([C@@H]1OC(=O)CCCCCCC)[C@@](C)(OC(C)=O)C[C@H](OC(=O)CCC)[C@@]1(O)[C@H]2OC(=O)[C@@]1(C)O [thapsigargin] here?
Its value is “putative CCND2 inhibitors”.

What does the source list for CC1(C)CCC2=C(O1)c1ccccc1C(=O)C2=O [β-lapachone, reference compound]?
cell cycle arrest phase (HMCL): S-phase arrest; identified as putative inhibitor of CCND2 transactivation (screen hit) (CCND2 promoter): putative CCND2 inhibitors
